Brc1cn[nH]c1
solubility (mole fraction)
Settings | in ethanol | in methanol | in water
283.15 K | 0.265 | 0.203 | 0.0048
285.65 K | 0.275 | 0.218 | 0.00501
288.15 K | 0.287 | 0.234 | 0.00532
290.65 K | 0.299 | 0.252 | 0.00562
293.15 K | 0.311 | 0.27 | 0.00591
295.65 K | 0.325 | 0.292 | 0.00623
298.15 K | 0.339 | 0.312 | 0.0066
300.65 K | 0.354 | 0.333 | 0.00696
303.15 K | 0.372 | 0.355 | 0.00733
305.65 K | 0.39 | 0.379 | 0.00772
308.15 K | 0.409 | 0.402 | 0.00809
310.65 K | 0.431 | 0.426 | 0.00848
313.15 K | 0.457 | 0.452 | 0.00895
315.65 K | 0.481 | 0.479 | 0.00941
318.15 K | 0.506 | 0.503 | 0.00987

From BigSolDB 2.1
